# Measured values as given in patent US6506555B1, “Use of HIV protease inhibiting compounds” (Institut National de la Sante et de la Recherche Medicale …, priority 1998, dated 2003).
# Assays:
# [1] = system: Hybridoma (MHC-I); test: IL-2 release by hybridoma FT6.9 cocultured with NOD pancreatic islets; assay type: cell-based, NOD mice
# Method: (§1) Ritonavir (0.6 mg per 10 g of body weight per day) or a placebo (phosphate buffer PBS) was administered by the intraperitoneal route to NOD mice. The pancreatic islets were removed and cultured for 24 hours in the presence or in the absence of 2.5 μg/ml of ritonavir. The cells were then cocultured with MHC-1-restricted hybridomas (FT6.9 and FT7.9 for 24 hours). The quantity of IL-2 was assayed in the supernatant. The following tables present the quantities of IL-2 measured by a test of proliferation (cpm×10^−3).
# [2] = system: Hybridoma ETG.9 (MHC-I); test: as above; assay type: cell-based, NOD mice
# Method: as §1
# [3] = Experimental allergic encephalitis in mice and transfer of protection; assay type: in vivo
# Method: In this experiment, healthy recipient mice not treated with ritonavir received, by the intravenous and/or peritoneal route, cells of the lymph nodes and of the spleen obtained from donor mice treated with ritonavir and having been subjected to the protocol for induction of EAE described above in Example a) and adapted to mice.
# The popliteal, inguinal and mesenteric ganglia and the spleen are removed at D10 after injection of MBP, cultured in the presence of 50 μg/ml of MBP. On the third day of culture, the nonadherent cells are recovered, passed over Ficoll and injected into the recipient mice (10×10^6 injected cells).
# [4] = system: M113 cells presenting the MART-1 antigen; test: Proliferation of M77-84 T lymphocytes stimulated by treated M113 cells
# [5] = system: cytotoxic T lymphocytes; assay type: in vivo, C57BL/6 mice; details: mice infected in the footpad with LCMV-WE; swelling after seven to eight days
# [6] = Appearance of type 1 diabetes in NOD mice; assay type: in vivo; details: ritonavir versus diluent
# Method: FIG. 5 represents the percentage of nondiabetic NOD mice as a function of time, in the case of a treatment with ritonavir compared with administration of a diluent.
# as §1, with “supernatant.” for “supernatant. The following tables present the quantities of IL-2 measured by a test of proliferation (cpm×10^−3).”
# [7] = system: class I molecules; test: Maturation and surface expression of class I molecules; assay type: cell-based
# [8] = system: LCMV; assay type: in vivo, mice; details: day D8; 200 pfu LCMV i.v.
# [9] = system: cytotoxic T lymphocytes; assay type: in vivo, C57BL/6 mice; details: splenocytes eight days after i.v. LCMV-WE; EL4 cells sensitized with GP33-41 or NP peptide
# [10] = system: M113 cells presenting the MART-1 antigen; test: TNFα production by M77-84 T lymphocytes in response to treated M113 melanoma cells; details: M113 cells cultured 24 hours with various concentrations
# [11] = in vivo PBS, in vitro ritonavir 2.5 μg/ml
# [12] = in vivo ritonavir, in vitro PBS
# [13] = in vivo ritonavir, in vitro ritonavir
smiles,measurement,setting,value
CC(C)c1nc(CN(C)C(=O)N[C@H](C(=O)N[C@@H](Cc2ccccc2)C[C@H](O)[C@H](Cc2ccccc2)NC(=O)OCc2cncs2)C(C)C)cs1 [ritonavir],percentage in brackets (reduction of IL-2 versus PBS/PBS),[1]; [11],37%
same,percentage in brackets (reduction of IL-2 versus PBS/PBS),[1]; [12],47%
same,percentage in brackets (reduction of IL-2 versus PBS/PBS),[1]; [13],31%
same,recognition ex vivo of Langerhan's cells by cytotoxic T clones,"[2]; cells isolated from NOD mice treated with ritonavir, statement covers both hybridomas",no longer recognized
same,quantity of IL-2 measured by a test of proliferation,[2]; [11],40 cpm×10^−3
same,quantity of IL-2 measured by a test of proliferation,[2]; [12],34 cpm×10^−3
same,quantity of IL-2 measured by a test of proliferation,[2]; [13],44 cpm×10^−3
same,symptoms of EAE in recipient mice after transfer of cells from donor mice treated with ritonavir,"[3]; 10×10^6 lymph node and spleen cells injected, EAE induction at D30 after the transfer",no symptom of EAE
same,EAE in mice treated with ritonavir,"[3]; mouse, in vivo",Results similar to those described in rats
same,presentation of MART-1 antigen: proliferation of M77-84 T lymphocytes,"[4]; M113 cells cultured 24 hours with 0.1-5 μg/ml, proliferation after 48 hours",inhibition
same,inhibition of proliferation,[4]; antigen presenting cells cultured in sera of HIV-negative volunteers obtained 3 hours after a single oral dose of 500 mg,Up to 70%
same,swelling of the footpad after injection of LCMV,[5],markedly inhibited
same,appearance of type 1 diabetes,[6],delays
same,expression at the surface of the class I molecules,[7],not significantly blocked
same,maturation of the class I molecules in the endoplasmic reticulum (resistance to endoglycosidase-H),[7],not significantly blocked
same,viral clearance (titre of viruses in the spleen),[8],decrease in the viral clearance
same,lysis of the target cells (direct lysis ex vivo after systemic infection),[9],reduced
same,presentation of MART-1 antigen: release of TNFα by M77-84 T lymphocytes,[10],inhibition
